This data set in a line: Measurement of stability (high-temperature, high-humidity and photostability tests; HPLC impurity content). It counts as physicochemical. To be noted: for total impurity / purity: 210 nm. The method, then: An appropriate amount of the Complex (IA) sample (prepared from example 2) was weighed and tiled on a clean culture dish at a thickness of ≤5 mm, and analyzed under the following conditions:
The test sample was placed under a high temperature condition (60±2° C.) for 10 d, the relative indexes were measured at the fifth and tenth days. […] If no significant change, the test at 40° C. was not necessary.
The test sample was placed under a 25° C. and RH 90%±5% condition for 10 d, and the sample were measured at the fifth and tenth days. Test items should include a moisture-absorption weight gain. If weighting percentage of moisture absorption was more than 5%, the test should be carried out under a 25° C. and RH 75%±5% condition using the same method; If weighting percentage of moisture absorption was less than 5%, and other inspection items met the requirements, the test was not necessary. The constant humidity condition can be realized by adopting constant temperature humidity chamber or placing a saturated saline solution under a closed container. […]
The test sample was placed in light box or other suitable light vessel under a 4500 Lx±500 Lx of illuminance condition for 10 d, and the sample were measured at the fifth and tenth days.
The impurity content of the sample was calculated by the normalization method of peak area using an HPLC chromatographic instrument under the above condition, the analytic conditions were shown below:
The detection was performed on Agilent 1200DAD high pressure liquid chromatography spectrometer (Zorbax Eclipse Plus C18 150×4.6 mm chromatographic column).
The test condition of HPLC: the run time was 30 minutes (min); the column temperature was 35° C.; the detection was carried out at the wavelength of 210 nm and 225 nm;
Mobile phase: phase C: acetonitrile phase D: ultrapure water flow rate: 1.0 mL/min.
Gradient elution, the ratio of mobile phase was shown as table B.

Where [1] appears, read: high humidity (25° C., RH 90%±5%), 5 d, HPLC.
Where [2] appears, read: high humidity (25° C., RH 90%±5%), 10 d, HPLC.
Where [3] appears, read: high-temperature (60±2° C.), 5 d, HPLC.
[4] abbreviates: high-temperature (60±2° C.), 10 d, HPLC.
Setting [5] is: illumination (4500 Lx±500 Lx), 5 d, HPLC.
[6] abbreviates: illumination (4500 Lx±500 Lx), 10 d, HPLC.

Each structure is given as a SMILES string.

On to `CCOc1ccc(Cc2cc([C@]34OC[C@]([C@@H](C)O)(O3)[C@@H](O)[C@H](O)[C@H]4O)ccc2Cl)cc1` [compound (I-n) amorphism, (1R,2S,3S,4R,5S)-5-(4-chloro-3-(4-ethoxybenzyl)phenyl)-1-((1R)-1-hydroxyethyl)-6,8-dioxabicyclo[3.2.1]octane-2,3,4-triol], for which the total impurity reads like this: (0 d, HPLC peak area normalization) 0.25%; under setting [1], 0.30%; under setting [2], 0.22%; under setting [3], 4.97%; under setting [4], 7.84%; under setting [5], 0.31%. The molecule also showed a total impurity under setting [6] of 0.28%. Besides, the purity is 99.75% (0 d, HPLC); 99.70% under setting [1]; 99.78% under setting [2]; 95.03% under setting [3]; 92.16% under setting [4]; 99.69% under setting [5]. For the same molecule, the purity under setting [6] is recorded as 99.72%. The appearance result reads like this: (high humidity (25° C., RH 90%±5%), 5 d) “white bulk”; (high humidity (25° C., RH 90%±5%), 10 d) “white bulk”. Where the note is “high-temperature, high humidity or illumination for 10 d, listed as compound (I-n) in amorphism form”, the “stability (summary in words)” value was “poor stability”.
